Experimental data: patent US9718790B2, “Triazine derivative and pharmaceutical composition having an analgesic activity comprising the same” (SHIONOGI & CO., LTD., priority 2010, dated 2017)
Several values for one entry are separate records, joined by “and”; a condition that tells them apart may be missing. Equal values may be shown once.

Molecular target: human P2X3 receptor (Homo sapiens (Human), UniProt P56373)
Assay: Evaluation of human P2X3 receptor inhibitory activity (Fluo-3 calcium fluorescence, FDSS 3000, ATP stimulation);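 also: stimulus was 50 nM ATP with fluorescence followed for 3 min, and the response per well was peak post-ATP fluorescence divided by the reading at measurement start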
Assay type: cell-based
[1] = C6BU-1 cells stably expressing human P2X3 receptor
[2] = human P2X3 receptor, Test Example 1

human P2X3 receptor, sequence (P56373 whole entry): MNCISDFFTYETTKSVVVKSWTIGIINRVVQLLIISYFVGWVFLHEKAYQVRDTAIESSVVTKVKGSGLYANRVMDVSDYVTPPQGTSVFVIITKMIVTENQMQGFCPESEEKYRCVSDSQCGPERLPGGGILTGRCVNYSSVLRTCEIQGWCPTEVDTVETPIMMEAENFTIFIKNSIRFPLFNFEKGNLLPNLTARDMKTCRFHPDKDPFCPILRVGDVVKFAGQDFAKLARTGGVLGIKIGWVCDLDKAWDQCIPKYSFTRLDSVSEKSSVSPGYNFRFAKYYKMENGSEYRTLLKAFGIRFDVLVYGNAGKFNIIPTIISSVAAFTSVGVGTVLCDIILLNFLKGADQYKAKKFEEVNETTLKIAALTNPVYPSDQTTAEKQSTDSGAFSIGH

Compound	IC50 [1]	IC50 [2] [nM]
CCn1c(=O)[nH]/c(=N\c2ccc(Oc3ccnc(C(=O)OC)c3)cc2)n(Cc2ccc(Cl)cn2)c1=O [Compound I-2186]	104 nM	–
CCOC(=O)c1cnc(Oc2ccc(/N=c3\[nH]c(=O)n(CC)c(=O)n3Cc3ccc(Cl)cc3)cc2)o1 [Compound I-2187]	44 nM	–
CCOC(=O)c1coc(Oc2ccc(/N=c3\[nH]c(=O)n(CC)c(=O)n3Cc3ccc(Cl)cc3)cc2)n1 [Compound I-2188]	9 nM	–
CCn1c(=O)[nH]/c(=N\c2ccc(Oc3ncc(C(=O)O)o3)cc2)n(Cc2ccc(Cl)cc2)c1=O [Compound I-2189]	47 nM and 51 nM	–
CCn1c(=O)[nH]/c(=N\c2ccc(Oc3nc(C(=O)O)co3)cc2)n(Cc2ccc(Cl)cc2)c1=O [Compound I-2190]	33 nM	–
CCOC(=O)c1csc(Oc2ccc(/N=c3\[nH]c(=O)n(CC)c(=O)n3Cc3ccc(Cl)cc3)cc2)n1 [Compound I-2191]	5 nM	–
CCOC(=O)c1cc(Oc2ccc(/N=c3\[nH]c(=O)n(CC)c(=O)n3Cc3ccc(Cl)cc3)cc2)[nH]n1 [Compound I-2192]	8 nM	–
CCn1c(=O)[nH]/c(=N\c2ccc(Oc3nc(C(=O)O)cs3)cc2)n(Cc2ccc(Cl)cc2)c1=O [Compound I-2193]	6 nM	–
CCn1c(=O)[nH]/c(=N\c2ccc(Oc3cc(C(=O)O)n[nH]3)cc2)n(Cc2ccc(Cl)cc2)c1=O [Compound I-2194]	52 nM	–
CCn1c(=O)[nH]/c(=N\c2ccc(Oc3cccc4ocnc34)c(Cl)c2)n(Cc2ccc(Cl)cc2)c1=O [Compound I-2195]	14 nM	–
CCn1c(=O)[nH]/c(=N\c2ccc(Oc3cccc4[nH]ncc34)c(Cl)c2)n(Cc2ccc(Cl)cc2)c1=O [Compound I-2196]	446 nM	–
CCn1c(=O)[nH]/c(=N\c2ccc(OCCN(C)C(C)=O)cc2)n(Cc2ccc(Cl)cc2)c1=O [Compound I-2197]	215 nM	–
CCn1c(=O)[nH]/c(=N\c2ccc(OCc3nnc(C)o3)cc2)n(Cc2ccc(Cl)cc2)c1=O [Compound I-2199]	515 nM	–
CCn1c(=O)[nH]/c(=N\c2ccc(OCc3noc(C)n3)cc2)n(Cc2ccc(Cl)cc2)c1=O [Compound I-2200]	545 nM	–
CCn1c(=O)[nH]/c(=N\c2ccc(OCCc3ccccn3)cc2)n(Cc2ccc(Cl)cc2)c1=O [Compound I-2201]	92 nM	–
CCCn1c(=O)[nH]/c(=N\c2ccc(Oc3ccc(C(N)=O)nc3)cc2)n(Cc2ccc(Cl)cc2)c1=O [Compound I-2203]	1 nM	–
CCn1c(=O)[nH]/c(=N\c2ccc(Oc3cncc(C(=O)OC)c3)cc2)n(CC2CCC(C)(C)CC2)c1=O [Compound I-2204]	28 nM	–
CCn1c(=O)[nH]/c(=N\c2ccc(Oc3ccnc(C(=O)OC)c3)cc2)n(CC2CCC(C)(C)CC2)c1=O [Compound I-2205]	9 nM	–
CCn1c(=O)[nH]/c(=N\c2ccc(Oc3cc(C(=O)OC)ncn3)cc2)n(Cc2ccc(Cl)cc2)c1=O [Compound I-2206]	12 nM	–
CCn1c(=O)[nH]/c(=N\c2ccc(Oc3cncc(C(=O)O)c3)cc2)n(CC2CCC(C)(C)CC2)c1=O [Compound I-2207]	69 nM	–
CCn1c(=O)[nH]/c(=N\c2ccc(Oc3ccnc(C(=O)O)c3)cc2)n(CC2CCC(C)(C)CC2)c1=O [Compound I-2208]	12 nM	–
CCn1c(=O)[nH]/c(=N\c2ccc(Oc3cc(C(=O)O)ncn3)cc2)n(Cc2ccc(Cl)cc2)c1=O [Compound I-2209]	8 nM	–

Compound	IC50 [1]	IC50 [2] [nM]
CCn1c(=O)[nH]/c(=N\c2ccc(Oc3cc(C(=O)OC)nc(Cl)n3)cc2)n(Cc2ccc(Cl)cc2)c1=O [Compound I-2210]	14 nM	–
CCn1c(=O)[nH]/c(=N\c2ccc(Oc3ccnc(C(=O)O)c3)cc2)n(Cc2ccc(Cl)cn2)c1=O [Compound I-2211]	14 nM	–
CCn1c(=O)[nH]/c(=N\c2ccc(Oc3cnc(C(=O)OC)cn3)cc2)n(Cc2ccc(Cl)cc2)c1=O [Compound I-2212]	2 nM	–
CCn1c(=O)[nH]/c(=N\c2ccc(Oc3ccnc(NC(=O)NC4CC4)c3)cc2)n(Cc2ccc(Cl)cc2)c1=O [Compound I-2213]	2 nM	–
CCn1c(=O)[nH]/c(=N\c2ccc(Oc3ccc(N)nc3)cc2)n(Cc2ccc(Cl)cc2)c1=O [Compound I-2214]	22 nM	–
O=C(O)c1cncc(Oc2ccc(/N=c3\[nH]c(=O)n(CC(F)F)c(=O)n3Cc3ccc(Cl)cc3)cc2)c1 [Compound I-2215]	6 nM	–
CCn1c(=O)[nH]/c(=N\c2ccc(Oc3ccnc(NC(C)=O)c3)cc2)n(Cc2ccc(Cl)cc2)c1=O [Compound I-2216]	5 nM	–
CCC(=O)Nc1cc(Oc2ccc(/N=c3\[nH]c(=O)n(CC)c(=O)n3Cc3ccc(Cl)cc3)cc2)ccn1 [Compound I-2217]	6 nM	–
CCn1c(=O)[nH]/c(=N\c2ccc(Oc3ccc(C(=O)OC)c(F)c3)cc2)n(Cc2ccc(Cl)cc2)c1=O [Compound I-2218]	3 nM	–
CCn1c(=O)[nH]/c(=N\c2ccc(Oc3cc(F)cc(C(=O)OC)c3)cc2)n(Cc2ccc(Cl)cc2)c1=O [Compound I-2219]	14 nM	–
CCn1c(=O)[nH]/c(=N\c2ccc(Oc3nc(OC)nc(OC)n3)cc2)n(Cc2ccc(Cl)cc2)c1=O [Compound I-2220]	37 nM	–
CCn1c(=O)[nH]/c(=N\c2ccc(Oc3nc(O)nc(O)n3)cc2)n(Cc2ccc(Cl)cc2)c1=O [Compound I-2222]	5 nM	–
CCn1c(=O)[nH]/c(=N\c2ccc(Oc3cc(F)cc(C(=O)O)c3)cc2)n(Cc2ccc(Cl)cc2)c1=O [Compound I-2223]	6 nM	–
CCn1c(=O)[nH]/c(=N\c2ccc(Oc3cccc(/C=C/C(=O)OC)c3)cc2)n(Cc2ccc(Cl)cc2)c1=O [Compound I-2224]	–	33
CCn1c(=O)[nH]/c(=N\c2ccc(Oc3cccc(CCC(=O)OC)c3)cc2)n(Cc2ccc(Cl)cc2)c1=O [Compound I-2225]	–	61
CCn1c(=O)[nH]/c(=N\c2ccc(Oc3ccc(C(=O)O)c(F)c3)cc2)n(Cc2ccc(Cl)cc2)c1=O [Compound I-2226]	–	12
CCn1c(=O)[nH]/c(=N\c2ccc(Oc3cc(C#N)ccn3)cc2)n(Cc2ccc(Cl)cc2)c1=O [Compound I-2227]	–	4
Cc1cc(Oc2ccc(/N=c3\[nH]c(=O)n(C[C@@H]4COC(C)(C)O4)c(=O)n3Cc3ccc(Cl)cc3)cc2)no1 [Compound I-2228]	–	5
Cc1cc(Oc2ccc(/N=c3\[nH]c(=O)n(C[C@@H](O)CO)c(=O)n3Cc3ccc(Cl)cc3)cc2)no1 [Compound I-2229]	–	23
CCCn1c(=O)[nH]/c(=N\c2ccc(Oc3ccc(C#N)nc3)cc2)n(Cc2ccc(Cl)cc2)c1=O [Compound I-2230]	–	2
CCn1c(=O)[nH]/c(=N\c2ccc(Oc3cccc(/C=C/C(=O)O)c3)cc2)n(Cc2ccc(Cl)cc2)c1=O [Compound I-2231]	–	3
CCn1c(=O)[nH]/c(=N\c2ccc(Oc3cccc(CCC(=O)O)c3)cc2)n(Cc2ccc(Cl)cc2)c1=O [Compound I-2232]	–	13

Compound	IC50 [1]	IC50 [2] [nM]
CCn1c(=O)[nH]/c(=N\c2ccc(Oc3cc(F)cc(C(N)=O)c3)cc2)n(Cc2ccc(Cl)cc2)c1=O [Compound I-2233]	–	2
CCn1c(=O)[nH]/c(=N\c2ccc(Oc3ccc(C(N)=O)c(F)c3)cc2)n(Cc2ccc(Cl)cc2)c1=O [Compound I-2234]	–	2
CCn1c(=O)[nH]/c(=N\c2ccc(Oc3ccc(F)c(C(N)=O)c3)cc2)n(Cc2ccc(Cl)cc2)c1=O [Compound I-2235]	–	4
CCn1c(=O)[nH]/c(=N\c2ccc(Oc3cncc(C(N)=O)c3)cc2)n(Cc2ccc(Cl)cn2)c1=O [Compound I-2236]	–	62
CCn1c(=O)[nH]/c(=N\c2ccc(Oc3ccnc(C(N)=O)c3)cc2)n(Cc2ccc(Cl)cn2)c1=O [Compound I-2237]	–	20
CCn1c(=O)[nH]/c(=N\c2ccc(Oc3cccc(C(=O)OC)n3)cc2)n(Cc2ccc(Cl)cn2)c1=O [Compound I-2238]	–	148
CCn1c(=O)[nH]/c(=N\c2ccc(Oc3cccc(C(=O)O)n3)cc2)n(Cc2ccc(Cl)cn2)c1=O [Compound I-2239]	–	49
CCn1c(=O)[nH]/c(=N\c2ccc(Oc3cccc(C(N)=O)n3)cc2)n(Cc2ccc(Cl)cn2)c1=O [Compound I-2240]	–	21
CCn1c(=O)[nH]/c(=N\c2ccc(Oc3ccc(NC(C)=O)nc3)cc2)n(Cc2ccc(Cl)cc2)c1=O [Compound I-2241]	–	1
CCC(=O)Nc1ccc(Oc2ccc(/N=c3\[nH]c(=O)n(CC)c(=O)n3Cc3ccc(Cl)cc3)cc2)cn1 [Compound I-2242]	–	< 4
CCn1c(=O)[nH]/c(=N\c2ccc(Oc3ccc(NC(=O)NC4CC4)nc3)cc2)n(Cc2ccc(Cl)cc2)c1=O [Compound I-2243]	–	6
CCn1c(=O)[nH]/c(=N\c2ccc(Oc3ccnc(CN(C)C)c3)cc2)n(Cc2ccc(Cl)cc2)c1=O [Compound I-2244]	–	59
CCn1c(=O)[nH]/c(=N\c2ccc(Oc3ccnc(CNC)c3)cc2)n(Cc2ccc(Cl)cc2)c1=O [Compound I-2245]	–	108
CCn1c(=O)[nH]/c(=N\[C@H]2CC[C@H](Oc3ccnc(C(=O)NC)c3)CC2)n(Cc2ccc(Cl)cc2)c1=O [Compound I-2246]	–	790
CCn1c(=O)[nH]/c(=N\c2ccc(Oc3cc(C(=O)OC)sn3)cc2)n(Cc2ccc(Cl)cc2)c1=O [Compound I-2247]	–	3
O=C(O)c1cc(Oc2ccc(/N=c3\[nH]c(=O)n(CC(F)F)c(=O)n3Cc3ccc(Cl)cc3)cc2)ccn1 [Compound I-2248]	–	7
CCn1c(=O)[nH]/c(=N\c2ccc(Oc3cc(C(=O)O)sn3)cc2)n(Cc2ccc(Cl)cc2)c1=O [Compound I-2249]	–	6
CCn1c(=O)[nH]/c(=N\c2ccc(Oc3cc(C(=O)O)ccn3)cc2)n(Cc2ccc(Cl)cc2)c1=O [Compound I-2250]	–	8
CCn1c(=O)[nH]/c(=N\c2ccc(Oc3ccnc(C(=O)NC)c3)c(OC)c2)n(Cc2ccc(Cl)cc2)c1=O [Compound I-2251]	–	5
COc1ccc(CNc2nc(=O)n(Cc3ccc(Cl)cc3)/c(=N/c3ccc(OC(C)C)cc3)[nH]2)c(OC)c1 [Compound I-2252]	–	769
CC(C)Oc1ccc(/N=c2\[nH]c(=S)n(C(C)C)c(=O)n2Cc2ccc(Cl)cc2)cc1 [Compound I-2254, 1-(4-chlorobenzyl)-3-isopropyl-6-(4-isopropoxyphenylimino)-4-thioxo-1,3,5-triazinane-2-one]	–	78
